According to patent US11746087B1, “C4-carboxylic acid-substituted tryptamine derivatives and methods of using” (priority 2022, dated 2023):
Like-named read-outs stand apart in the source and are kept apart here.

Assay: Mouse PK study (IV and PO), plasma parent compound and psilocin by LC-MS/MS
Assay type: in vivo
Settings: male, C57Bl/6, mouse, plasma; for C0: read-out: C0; for Vd: read-out: Vss
Source text: Briefly, the procedure was as follows. […] 19, 2022.

[1] = intravenous, 1 mg/kg, 1 mg/kg i.v. C(XX), per animal, BLQ <0.25 ng/mL, read-out: Plasma concentration of C(XX)
[2] = intravenous, 1 mg/kg, 1 mg/kg i.v. C(XX), Mean ± SD, read-out: Plasma concentration of C(XX)
[3] = iv, 1 mg/kg, C(XX) in plasma, 1 mg/kg i.v. C(XX), Mean ± SD
[4] = iv, 1 mg/kg, C(XX) in plasma, 1 mg/kg i.v. C(XX), per animal
[5] = oral, 1 mg/kg, 1 mg/kg oral C(XX), Mean ± SD, read-out: Plasma concentration of C(XX)
[6] = oral, 1 mg/kg, 1 mg/kg oral C(XX), per animal, BLQ <0.25 ng/mL, read-out: Plasma concentration of C(XX)
[7] = oral, 3 mg/kg, 3 mg/kg oral C(XX), Mean ± SD, read-out: Plasma concentration of C(XX)
[8] = oral, 3 mg/kg, 3 mg/kg oral C(XX), per animal, BLQ <0.25 ng/mL, read-out: Plasma concentration of C(XX)
[9] = oral, 10 mg/kg, 10 mg/kg oral C(XX), Mean ± SD, read-out: Plasma concentration of C(XX)
[10] = oral, 10 mg/kg, 10 mg/kg oral C(XX), per animal, BLQ <0.25 ng/mL, read-out: Plasma concentration of C(XX)
[11] = oral, 10 mg/kg, 10 mg/kg oral C(XX), mean (n = 2), read-out: Plasma concentration of C(XX)

SMILES: CN(C)CCc1c[nH]c2cccc(OC(=O)c3cccc4c3OCCO4)c12 [C(XX)]
- concentration at 0.5 h [1]: 26.1 ng/mL
- concentration at 1 h [2]: 8.43 ± 0.438 ng/mL
- concentration at 1 h [1]: 8.93 ng/mL
- concentration at 2 h [2]: 1.05 ± 0.0871 ng/mL
- concentration at 2 h [1]: 0.968 ng/mL
- concentration at 4 h [2]: 0.181 ± 0.0663 ng/mL
- concentration at 4 h [1]: 0.257 ng/mL
- half-life (iv, 1 mg/kg, 1 mg/kg i.v. C(XX), mean ± SD, read-out: Apparent t1/2 of C(XX) in plasma (converted)): 33.8 min
- clearance [3]: 320 mL/min/kg
- AUC(0-inf) (iv, 1 mg/kg, C(XX) in plasma, 1 mg/kg i.v. C(XX), Mean ± SD, read-out: AUC0-inf): 53 ± 8.26 ng·h/mL
- AUC(0-t) (iv, 1 mg/kg, C(XX) in plasma, 1 mg/kg i.v. C(XX), Mean ± SD, read-out: AUC0-tlast): 52.8 ± 8.3 ng·h/mL
- half-life (iv, 1 mg/kg, C(XX) in plasma, 1 mg/kg i.v. C(XX), Mean ± SD, read-out: Apparent t1/2 (converted)): 33.8 ± 3.23 min
- C0 [3]: 161 ± 37.3 ng/mL
- MRT inf (iv, 1 mg/kg, C(XX) in plasma, 1 mg/kg i.v. C(XX), Mean ± SD, read-out: MRT0-inf): 24.7 ± 2.27 min
- Vd [3]: 7.94 ± 1.79 L/kg
- clearance [4]: 345 mL/min/kg
- AUC(0-inf) (iv, 1 mg/kg, C(XX) in plasma, 1 mg/kg i.v. C(XX), per animal, read-out: AUC0-inf): 48.3 ng·h/mL
- AUC(0-t) (iv, 1 mg/kg, C(XX) in plasma, 1 mg/kg i.v. C(XX), per animal, read-out: AUC0-tlast): 48.1 ng·h/mL
- half-life (iv, 1 mg/kg, C(XX) in plasma, 1 mg/kg i.v. C(XX), per animal, read-out: Apparent t1/2 (converted)): 37.5 min
- C0 [4]: 140 ng/mL
- MRT inf (iv, 1 mg/kg, C(XX) in plasma, 1 mg/kg i.v. C(XX), per animal, read-out: MRT0-inf): 26.2 min
- Vd [4]: 9.03 L/kg
- concentration at 0.25 h [5]: 0.603 ± 0.127 ng/mL
- concentration at 0.25 h [6]: 0.701 ng/mL
- concentration at 0.5 h [5]: 0.62 ± 0.0996 ng/mL
- concentration at 0.5 h [6]: 0.702 ng/mL
- concentration at 1 h [5]: 0.294 ± 0.0987 ng/mL
- concentration at 1 h [6]: 0.396 ng/mL
- concentration at 0.25 h [7]: 1.71 ± 0.22 ng/mL
- concentration at 0.25 h [8]: 1.49 ng/mL
- concentration at 0.5 h [7]: 1.34 ± 0.179 ng/mL
- concentration at 0.5 h [8]: 1.45 ng/mL
- concentration at 1 h [7]: 0.572 ± 0.164 ng/mL
- concentration at 1 h [8]: 0.43 ng/mL
- concentration at 2 h [7]: 0.175 ± 0.0621 ng/mL
- concentration at 2 h [8]: 0.124 ng/mL
- concentration at 0.25 h [9]: 7.47 ± 3.92 ng/mL
- concentration at 0.5 h [9]: 4.15 ± 1.52 ng/mL
- concentration at 1 h [9]: 1.99 ± 0.657 ng/mL
- concentration at 1 h [10]: 1.53 ng/mL
- concentration at 2 h [9]: 0.773 ± 0.279 ng/mL
- concentration at 4 h [11]: 0.264 ng/mL
- concentration at 4 h [10]: 0.225 ng/mL
- concentration at 6 h (oral, 10 mg/kg, 10 mg/kg oral C(XX), 6 h, mean (n = 2), read-out: Plasma concentration of C(XX)): 0.36 ng/mL
- concentration at 8 h [11]: 0.26 ng/mL
- concentration at 8 h [10]: 0.335 ng/mL
- Cmax (po, 1 mg/kg, C(XX) in plasma, 1 mg/kg oral C(XX), Mean ± SD, read-out: Cmax): 0.62 ± 0.0996 ng/mL
- Tmax (po, 1 mg/kg, C(XX) in plasma, 1 mg/kg oral C(XX), Mean ± SD, read-out: tmax): 25 ± 8.64 min
- Cmax (po, 1 mg/kg, C(XX) in plasma, 1 mg/kg oral C(XX), per animal, read-out: Cmax): 0.702 ng/mL
- Tmax (po, 1 mg/kg, C(XX) in plasma, 1 mg/kg oral C(XX), per animal, read-out: tmax): 30 min
- half-life (po, 3 mg/kg, 3 mg/kg p.o. C(XX), mean ± SD, read-out: Apparent t1/2 of C(XX) in plasma (converted)): 31.7 min
- AUC(0-inf) (po, 3 mg/kg, C(XX) in plasma, 3 mg/kg oral C(XX), Mean ± SD, read-out: AUC0-inf): 1.51 ± 0.21 ng·h/mL
- AUC(0-t) (po, 3 mg/kg, C(XX) in plasma, 3 mg/kg oral C(XX), Mean ± SD, read-out: AUC0-tlast): 1.37 ± 0.137 ng·h/mL
- half-life (po, 3 mg/kg, C(XX) in plasma, 3 mg/kg oral C(XX), Mean ± SD, read-out: Apparent t1/2 (converted)): 31.7 ± 7.38 min
- Cmax (po, 3 mg/kg, C(XX) in plasma, 3 mg/kg oral C(XX), Mean ± SD, read-out: Cmax): 1.71 ± 0.22 ng/mL
- MRT inf (po, 3 mg/kg, C(XX) in plasma, 3 mg/kg oral C(XX), Mean ± SD, read-out: MRT0-inf): 53.9 ± 9.48 min
- Tmax (po, 3 mg/kg, C(XX) in plasma, 3 mg/kg oral C(XX), Mean ± SD, read-out: tmax): 15 min
- AUC(0-inf) (po, 3 mg/kg, C(XX) in plasma, 3 mg/kg oral C(XX), per animal, read-out: AUC0-inf): 1.3 ng·h/mL
- AUC(0-t) (po, 3 mg/kg, C(XX) in plasma, 3 mg/kg oral C(XX), per animal, read-out: AUC0-tlast): 1.22 ng·h/mL
- half-life (po, 3 mg/kg, C(XX) in plasma, 3 mg/kg oral C(XX), per animal, read-out: Apparent t1/2 (converted)): 26.3 min
- Cmax (po, 3 mg/kg, C(XX) in plasma, 3 mg/kg oral C(XX), per animal, read-out: Cmax): 1.49 ng/mL
- MRT inf (po, 3 mg/kg, C(XX) in plasma, 3 mg/kg oral C(XX), per animal, read-out: MRT0-inf): 47.6 min
- Tmax (po, 3 mg/kg, C(XX) in plasma, 3 mg/kg oral C(XX), per animal, read-out: tmax): 15 min
- AUC(0-inf) (po, 10 mg/kg, 10 mg/kg oral C(XX), individual animals, read-out: AUC0-inf of C(XX) in plasma): 5.4 ng·h/mL
- AUC(0-t) (po, 10 mg/kg, 10 mg/kg oral C(XX), individual animals, read-out: AUC0-tlast of C(XX) in plasma): 5.65 ng·h/mL
- Tmax (po, 10 mg/kg, 10 mg/kg oral C(XX), individual animals, read-out: tmax of C(XX) in plasma): 15 min
- AUC(0-inf) (po, 10 mg/kg, 10 mg/kg oral C(XX), mean (n = 2), read-out: AUC0-inf of C(XX) in plasma): 8.03 ng·h/mL
- half-life (po, 10 mg/kg, 10 mg/kg oral C(XX), mean (n = 2), read-out: Apparent t1/2 of C(XX) in plasma (converted)): 186 min
- MRT inf (po, 10 mg/kg, 10 mg/kg oral C(XX), mean (n = 2), read-out: MRT0-inf of C(XX) in plasma): 131 min
- AUC(0-t) (po, 10 mg/kg, 10 mg/kg oral C(XX), mean ± SD, read-out: AUC0-tlast of C(XX) in plasma): 6.6 ± 2.24 ng·h/mL
- Cmax (po, 10 mg/kg, 10 mg/kg oral C(XX), mean ± SD, read-out: Cmax of C(XX) in plasma): 7.47 ± 3.92 ng/mL
- Tmax (po, 10 mg/kg, 10 mg/kg oral C(XX), mean ± SD, read-out: tmax of C(XX) in plasma): 15 min
